# Read-outs that look alike come from different tables or passages of the source.
# Legend:
# LNCaP (AR+) = test: ATP-dependent proliferation assay with 10 nM DHT, prostate cancer cells (Examples 1, 2); type: cell-based, human
# Protocol: (§1) The experiment was performed to test and to define the antitumor activity in vitro of cortexolone 17α-benzoate on LNCaP (AR^+) and PC3 (AR^−), representative of Prostatic cancer cell lines with Androgen receptor positive or negative expression, respectively. The experimental method consisted of: • 1. […] After 24 hrs, 10 nM DHT (dihydrotestosterone) with or without anti-androgen compounds, or DMSO vehicle (negative control) was added to the cultures. • 3.
# (§2) Data from Experiment 1 was fitted through sigmoidal dose response curves and analyzed using Prizm statistical analysis software. […] The results from 2 sets of experiments follow.
# as §1, with “define” for “define the”, “17α-valerate-21-propionate” for “17α-benzoate”, “hours,” for “hrs,”
# PC3 (AR−) = test: as above; type: cell-based, human
# Protocol: as §1, §2
# as §1, with “define” for “define the”, “17α-valerate-21-propionate” for “17α-benzoate”, “hours,” for “hrs,”
# [1] = system: MiaPaca-2 pancreatic tumor xenograft; test: Human pancreatic tumor xenograft in nude mice; type: in vivo; settings: for in vivo antitumor activity compared with Cyproterone Acetate: Examples 5 and 6
# Protocol: Cortexolone 17α-benzoate and Cyproterone Acetate were separately diluted in DMSO/2-hydroxypropyl β-cyclodextrin (vehicle).
# The test was carried out comparing the anti-tumor activity of cortexolone 17α-benzoate at two different dosages (8.0 mg/kg, corresponding approximately at 230 μM, and 40 mg/kg, corresponding approximately at 1150 μM), versus the vehicle (i.e. 0.4% (v/v) tween 80 and 0.5% (w/v) carboxymethylcellulose in normal saline) and versus the comparator Cyproterone Acetate at two different dosages (7.4 mg/kg and 37 mg/kg).
# 1×10^6 MiaPaca-2 cells suspended in matrigel were sub-cutaneously injected into 6 week old athymic nude mice.
# The treatment with the tested compounds, with the vehicle and with the comparative compound, was initiated after the tumor volume has reached 50 mm^3 after transplantation. All compounds were injected 100 μL/mouse of low dose solution (approximately 230 μM) or 100 μL/mouse of high dose solution (approximately 1150 μM) of cortexolone 17α-benzoate, vehicle and Cyproterone Acetate, respectively. Compounds and controls were administered subcutaneously daily for 28 days.
# Tumors were measured every 4 days with a digital caliper.
# The results are plotted in FIG. 1 as average change in tumor volume relative to the start of treatment. Tumor volume was calculated according to the formula 0.5236(r1)^2(r2) where r1<r2.
# Error bars are the SEM for 7 to 10 mice per treatment group. P values were calculated according to the Student's t test.
# Cortexolone 17α-valerate-21-propionate and Cyproterone Acetate were separately diluted in DMSO/2-hydroxypropyl β-cyclodextrin (vehicle).
# The test was carried out comparing the anti-tumor activity of cortexolone 17α-valerate-21-propionate at two different dosages (approximately 8.6 mg/kg and 43 mg/kg) versus the vehicle (i.e. 0.4% (v/v) tween 80 and 0.5% (w/v) carboxymethylcellulose in normal saline) and versus the comparator Cyproterone Acetate at two different dosages (7.4 mg/kg and 37 mg/kg).
# 1×10^6 MiaPaca-2 cells suspended in matrigel were subcutaneously injected into 6 week old athymic nude mice.
# The treatment with the tested compound, with the vehicle and with the comparative compound was initiated after the tumor has reached a volume of 50 mm^3 after implantation, injecting subcutaneously 100 μL/mouse of low dose solution (approximately 230 μM) or 100 μL/mouse of high dose solution (approximately 1150 μM) of cortexolone 17α-valerate-21-propionate, vehicle and Cyproterone Acetate, respectively. Compounds and controls were administered subcutaneously daily for 28 days. Tumors were measured every 4 days with a digital caliper.
# The results are plotted in FIG. 2 as average change in tumor volume relative to the start of treatment. Tumor volume was calculated according to the formula 0.5236(r1)^2(r2) where r1<r2.
# Cyproterone acetate (CPA), a well-known anti-androgen, was used as control. Briefly 1×10^6 MiaPaca2 cells suspended in matrigel were subcutaneously (sc) injected into 6 week old male athymic nude mice. Tumors were measured every 4 days with a digital caliper. Tumor volume was calculated according to the formula: 0.5236(r1)2(r2) where r1<r2. Treatment with CB-03-06 and control compounds were initiated after the tumor had reached 50 mm^3. Compounds diluted in DMSO/2-hydroxypropyl b-cyclodextrin (vehicle) were subcutaneously injected daily (100 microL/mouse) at the concentration of 40 mg/Kg daily for 28 consecutive days.
# 7 cancer cell lines = test: Therapeutic index over a panel of cancer cell lines; type: cell-based; settings: average over the cancer cell lines of Table VII
# Protocol: The compound toxicity was determined as follow:
# Therapeutic Index=Safety/Potency=IC50 stimulated PBMC/IC50 cancer cell
SMILES,"IC50 (LNCaP (AR+); LNCaP, Experiment 1, sigmoidal dose response fit, 10 nM DHT, 3 days, read-out: IC50)","IC50 (LNCaP (AR+); LNCaP, Experiment 2, nonlinear regression least squares fit, additional experiments, read-out: IC50)","IC50 (PC3 (AR−); PC3, Experiment 1, sigmoidal dose response fit, 10 nM DHT, 3 days, read-out: IC50)","IC50 (PC3 (AR−); PC3, Experiment 2, nonlinear regression least squares fit, additional experiments, read-out: IC50)","pancreatic tumor size relative to the initial tumor size ([1]; Example 6, MiaPaca-2 xenograft, nude mice, SC daily 28 days, for the time of treatment)",in vivo antitumor activity compared with Cyproterone Acetate ([1]; MiaPaca-2 xenograft),"Therapeutic Index = IC50 stimulated PBMC/IC50 cancer cell, AVERAGE (7 cancer cell lines)","IC50 (LNCaP (AR+); Homo sapiens, LNCaP/AR)","IC50 (LNCaP (AR+); Homo sapiens, LNCaP/AR, 72 h)","IC50 (PC3 (AR−); Homo sapiens, PC3/AR)","IC50 (PC3 (AR−); Homo sapiens, PC3/AR, 72 h)","pancreatic tumor size relative to the size when treatment was initiated ([1]; Example 5, MiaPaca-2 xenograft, nude mice, SC daily 28 days, high dose of cortexolone 17α-benzoate (40 mg/kg))","pancreatic tumor size relative to the initial size ([1]; Example 22, MiaPaca2 xenograft, male nude mice, 40 mg/Kg SC daily 28 days, treatment period)","Median survival ([1]; Example 22, MiaPaca2 xenograft, 40 mg/Kg SC daily 28 days)"
"CCCCC(=O)O[C@]1(C(=O)COC(=O)CC)CC[C@H]2[C@@H]3CCC4=CC(=O)CC[C@]4(C)[C@H]3CC[C@@]21C [CB-03-10, cortexolone 17α-valerate-21-propionate]",13 µM,10 µM,55 µM,50 µM,less than 5 fold,antitumor activity higher than Cyproterone Acetate,4,,,,,,,
"C[C@]12CCC(=O)C=C1CC[C@@H]1[C@@H]2CC[C@@]2(C)[C@H]1CC[C@]2(OC(=O)c1ccccc1)C(=O)CO [CB-03-06, cortexolone 17α-benzoate]",,,,,,antitumor activity higher than Cyproterone Acetate,5,12 µM,12 µM,28 µM,29 µM,less than 5 fold,less than 5 fold,70 days
